Reference: US7452887B2, “Quinoline- and isoquinoline-based compounds exhibiting ATP-utilizing enzyme inhibitory activity, and compositions, and uses thereof” (Amphora Discovery Corporation, priority 2004, dated 2008)

Tests used:
Experiment in all cases: HTS ATP-utilizing enzyme assay, off-chip mobility-shift (Caliper HTS 250)
Assay type in all cases: biochemical
Settings in all cases: test compound 10 μM, kinase listed = active (greater than six-sigma from the mean activity of inactive compounds)
[1] = biological target: KIT (Homo sapiens, UniProt P10721)
KIT, sequence (P10721 26-976): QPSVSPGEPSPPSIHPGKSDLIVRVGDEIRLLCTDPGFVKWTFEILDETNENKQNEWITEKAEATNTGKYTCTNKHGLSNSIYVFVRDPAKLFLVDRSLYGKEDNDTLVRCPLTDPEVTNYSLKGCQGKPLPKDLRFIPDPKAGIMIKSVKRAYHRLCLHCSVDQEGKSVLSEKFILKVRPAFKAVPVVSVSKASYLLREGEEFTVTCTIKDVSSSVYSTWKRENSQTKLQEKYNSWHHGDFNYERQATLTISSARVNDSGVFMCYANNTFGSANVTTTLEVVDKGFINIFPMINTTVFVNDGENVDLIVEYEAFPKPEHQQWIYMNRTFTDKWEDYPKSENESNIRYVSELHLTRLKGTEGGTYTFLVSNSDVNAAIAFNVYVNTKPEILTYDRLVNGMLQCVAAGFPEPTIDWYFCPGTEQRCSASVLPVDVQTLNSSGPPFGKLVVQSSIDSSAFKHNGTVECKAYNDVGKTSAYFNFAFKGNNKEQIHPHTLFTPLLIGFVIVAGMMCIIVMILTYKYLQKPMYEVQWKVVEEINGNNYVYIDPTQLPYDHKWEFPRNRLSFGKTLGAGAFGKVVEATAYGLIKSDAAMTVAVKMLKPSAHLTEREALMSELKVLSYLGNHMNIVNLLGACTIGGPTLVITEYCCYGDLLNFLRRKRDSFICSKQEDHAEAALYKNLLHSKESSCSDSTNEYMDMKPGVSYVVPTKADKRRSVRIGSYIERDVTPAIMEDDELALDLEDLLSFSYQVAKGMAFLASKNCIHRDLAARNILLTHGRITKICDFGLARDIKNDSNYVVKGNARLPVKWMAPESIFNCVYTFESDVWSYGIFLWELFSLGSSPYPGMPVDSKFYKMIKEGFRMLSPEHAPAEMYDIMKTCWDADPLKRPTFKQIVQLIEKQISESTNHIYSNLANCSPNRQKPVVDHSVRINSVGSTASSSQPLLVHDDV
Procedure, shortened: (§1)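 Compounds were tested once at 10 μM against kinase with peptide substrate. After 2.5 hrs at 20° C. to 22° C., reactions were terminated with EDTA, and conversion was read as substrate/product ratio by mobility shift.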

[2] = biological target: T1, BMX (Homo sapiens, UniProt P51813)
T1 sequence (P51813 1-675): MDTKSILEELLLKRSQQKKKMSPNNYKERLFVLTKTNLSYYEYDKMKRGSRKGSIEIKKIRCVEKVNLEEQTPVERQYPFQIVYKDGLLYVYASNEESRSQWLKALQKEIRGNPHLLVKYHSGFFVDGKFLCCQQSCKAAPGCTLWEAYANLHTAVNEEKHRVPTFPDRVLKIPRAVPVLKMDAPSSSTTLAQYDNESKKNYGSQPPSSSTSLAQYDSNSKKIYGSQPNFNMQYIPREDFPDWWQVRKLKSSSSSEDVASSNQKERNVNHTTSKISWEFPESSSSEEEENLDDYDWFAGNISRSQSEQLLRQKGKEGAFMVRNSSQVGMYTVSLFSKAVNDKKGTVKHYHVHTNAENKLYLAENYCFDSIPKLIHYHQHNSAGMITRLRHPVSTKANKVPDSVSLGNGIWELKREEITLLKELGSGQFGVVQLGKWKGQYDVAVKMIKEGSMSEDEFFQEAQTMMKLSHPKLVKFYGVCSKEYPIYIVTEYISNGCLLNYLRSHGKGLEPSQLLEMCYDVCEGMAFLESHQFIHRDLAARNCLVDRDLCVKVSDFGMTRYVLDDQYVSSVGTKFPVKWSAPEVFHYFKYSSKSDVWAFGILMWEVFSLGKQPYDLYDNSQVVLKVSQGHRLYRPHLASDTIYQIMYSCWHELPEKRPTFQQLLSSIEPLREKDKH
Procedure, shortened: as §1

[3] = biological target: T2, FLT-3 (Homo sapiens, UniProt P36888)
T2 sequence (P36888 27-993): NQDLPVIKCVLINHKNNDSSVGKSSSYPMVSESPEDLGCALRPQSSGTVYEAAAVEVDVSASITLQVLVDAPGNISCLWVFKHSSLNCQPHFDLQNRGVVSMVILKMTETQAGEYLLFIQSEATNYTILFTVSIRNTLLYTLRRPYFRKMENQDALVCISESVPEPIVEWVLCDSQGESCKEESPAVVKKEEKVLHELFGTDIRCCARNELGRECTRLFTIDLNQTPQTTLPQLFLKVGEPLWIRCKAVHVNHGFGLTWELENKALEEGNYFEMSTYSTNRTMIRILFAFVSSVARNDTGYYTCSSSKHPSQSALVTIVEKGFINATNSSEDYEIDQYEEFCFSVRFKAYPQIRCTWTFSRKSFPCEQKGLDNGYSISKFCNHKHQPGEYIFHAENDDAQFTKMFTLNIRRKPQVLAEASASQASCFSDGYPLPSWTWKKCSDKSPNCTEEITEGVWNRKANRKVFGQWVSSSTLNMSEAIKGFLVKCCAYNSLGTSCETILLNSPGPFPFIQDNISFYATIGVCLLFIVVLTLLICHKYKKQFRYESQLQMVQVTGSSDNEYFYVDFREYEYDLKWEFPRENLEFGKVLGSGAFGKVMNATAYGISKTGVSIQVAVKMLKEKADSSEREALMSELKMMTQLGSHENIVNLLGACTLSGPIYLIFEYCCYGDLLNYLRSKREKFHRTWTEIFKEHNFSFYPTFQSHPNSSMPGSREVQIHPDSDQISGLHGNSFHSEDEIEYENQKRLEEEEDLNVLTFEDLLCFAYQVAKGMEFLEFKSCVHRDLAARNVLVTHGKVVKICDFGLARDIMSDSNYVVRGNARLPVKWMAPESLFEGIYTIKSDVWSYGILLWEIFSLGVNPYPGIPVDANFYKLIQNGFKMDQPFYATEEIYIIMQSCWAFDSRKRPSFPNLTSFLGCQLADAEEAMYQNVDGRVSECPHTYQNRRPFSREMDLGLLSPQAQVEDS
Procedure, shortened: as §1

[4] = biological target: MAPKAPK2 (Homo sapiens, UniProt P49137)
MAPKAPK2, sequence (P49137 whole entry): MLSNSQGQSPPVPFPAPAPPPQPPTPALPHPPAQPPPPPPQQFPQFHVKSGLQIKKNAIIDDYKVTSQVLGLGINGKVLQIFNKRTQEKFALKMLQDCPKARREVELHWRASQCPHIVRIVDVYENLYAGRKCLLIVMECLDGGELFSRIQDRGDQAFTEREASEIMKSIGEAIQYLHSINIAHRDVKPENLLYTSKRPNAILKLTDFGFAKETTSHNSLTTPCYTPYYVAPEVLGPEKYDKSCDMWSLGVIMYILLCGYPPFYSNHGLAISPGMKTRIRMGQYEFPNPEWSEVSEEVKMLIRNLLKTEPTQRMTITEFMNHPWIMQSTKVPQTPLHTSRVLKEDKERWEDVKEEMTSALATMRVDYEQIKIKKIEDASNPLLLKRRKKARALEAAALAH
Procedure, shortened: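 Phosphorylation of a peptide substrate was quantified by Caliper mobility-shift separation of substrate and product after 2.5 h at 20-22 °C, with compounds tested at 10 μM. Inhibition was normalized to EDTA-quenched (100%) and DMSO (0%) controls; six-sigma thresholds flagged actives.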

[5] = biological target: T3, CHEK1 (Homo sapiens, UniProt O14757)
T3 sequence (O14757 1-476): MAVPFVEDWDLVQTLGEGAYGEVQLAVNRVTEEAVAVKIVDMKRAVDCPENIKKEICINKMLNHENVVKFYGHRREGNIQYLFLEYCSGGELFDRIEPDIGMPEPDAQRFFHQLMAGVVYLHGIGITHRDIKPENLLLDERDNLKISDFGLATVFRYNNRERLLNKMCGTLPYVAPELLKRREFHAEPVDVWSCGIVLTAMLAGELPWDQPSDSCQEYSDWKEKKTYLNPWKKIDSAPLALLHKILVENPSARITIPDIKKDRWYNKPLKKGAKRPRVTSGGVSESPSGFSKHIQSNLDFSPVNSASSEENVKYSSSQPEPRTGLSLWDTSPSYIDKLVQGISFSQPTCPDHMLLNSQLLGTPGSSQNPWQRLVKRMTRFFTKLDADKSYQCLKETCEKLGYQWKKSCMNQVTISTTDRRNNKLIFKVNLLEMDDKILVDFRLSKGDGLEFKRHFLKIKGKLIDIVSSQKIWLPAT
Procedure, shortened: as §1

[6] = biological target: T4, NEK2 (Homo sapiens, UniProt P51955)
T4 sequence (P51955 1-445): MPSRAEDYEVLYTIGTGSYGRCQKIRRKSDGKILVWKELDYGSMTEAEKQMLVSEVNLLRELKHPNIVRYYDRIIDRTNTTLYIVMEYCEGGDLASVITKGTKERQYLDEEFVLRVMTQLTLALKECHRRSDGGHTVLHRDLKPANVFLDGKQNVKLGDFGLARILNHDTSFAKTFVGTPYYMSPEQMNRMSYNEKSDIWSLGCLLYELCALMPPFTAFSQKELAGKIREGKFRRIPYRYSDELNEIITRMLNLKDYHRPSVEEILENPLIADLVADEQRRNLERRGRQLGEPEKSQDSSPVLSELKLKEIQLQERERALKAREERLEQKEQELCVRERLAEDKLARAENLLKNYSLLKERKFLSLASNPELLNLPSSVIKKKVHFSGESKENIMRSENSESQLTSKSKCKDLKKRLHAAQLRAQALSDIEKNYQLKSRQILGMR
Procedure, shortened: as §1

[7] = biological target: C-TAK1 (Homo sapiens, UniProt P27448)
C-TAK1, sequence (P27448 whole entry): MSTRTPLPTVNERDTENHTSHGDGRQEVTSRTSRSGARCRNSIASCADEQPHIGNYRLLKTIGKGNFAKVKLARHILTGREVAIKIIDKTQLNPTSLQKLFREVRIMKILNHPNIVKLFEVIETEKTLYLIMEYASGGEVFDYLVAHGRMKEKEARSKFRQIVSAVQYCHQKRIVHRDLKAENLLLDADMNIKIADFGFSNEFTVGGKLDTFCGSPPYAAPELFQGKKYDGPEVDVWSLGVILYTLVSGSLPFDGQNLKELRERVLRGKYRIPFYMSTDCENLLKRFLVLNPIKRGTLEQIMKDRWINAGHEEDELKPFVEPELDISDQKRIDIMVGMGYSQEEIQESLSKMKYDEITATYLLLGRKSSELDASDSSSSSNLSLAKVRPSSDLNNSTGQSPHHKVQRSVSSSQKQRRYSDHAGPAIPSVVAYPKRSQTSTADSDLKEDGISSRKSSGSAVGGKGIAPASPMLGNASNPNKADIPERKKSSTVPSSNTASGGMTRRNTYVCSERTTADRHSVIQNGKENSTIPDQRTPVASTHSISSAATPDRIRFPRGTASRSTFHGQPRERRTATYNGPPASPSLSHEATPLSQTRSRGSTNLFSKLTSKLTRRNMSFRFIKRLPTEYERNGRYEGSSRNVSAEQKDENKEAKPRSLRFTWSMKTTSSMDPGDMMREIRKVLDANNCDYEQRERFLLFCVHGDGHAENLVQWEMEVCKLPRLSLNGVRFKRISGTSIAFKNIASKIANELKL
Procedure, shortened: as §1

[8] = biological target: T5, PRAK (Homo sapiens, UniProt Q8IW41)
T5 sequence (Q8IW41 1-473): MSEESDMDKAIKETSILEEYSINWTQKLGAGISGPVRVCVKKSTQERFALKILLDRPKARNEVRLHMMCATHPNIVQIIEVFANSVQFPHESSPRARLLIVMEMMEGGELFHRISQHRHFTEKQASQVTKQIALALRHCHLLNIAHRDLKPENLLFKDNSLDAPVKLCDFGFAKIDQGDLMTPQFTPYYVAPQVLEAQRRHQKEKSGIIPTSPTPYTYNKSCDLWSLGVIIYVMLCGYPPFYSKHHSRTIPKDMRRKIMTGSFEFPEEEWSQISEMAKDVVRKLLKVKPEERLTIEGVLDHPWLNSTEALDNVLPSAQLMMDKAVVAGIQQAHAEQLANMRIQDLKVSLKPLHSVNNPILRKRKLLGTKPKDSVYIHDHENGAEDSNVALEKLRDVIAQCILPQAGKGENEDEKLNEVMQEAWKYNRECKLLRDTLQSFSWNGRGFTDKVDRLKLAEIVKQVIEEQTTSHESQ
Procedure, shortened: as §1

[9] = biological target: GSK3-α (Homo sapiens, UniProt P49840)
GSK3-α, sequence (P49840 whole entry): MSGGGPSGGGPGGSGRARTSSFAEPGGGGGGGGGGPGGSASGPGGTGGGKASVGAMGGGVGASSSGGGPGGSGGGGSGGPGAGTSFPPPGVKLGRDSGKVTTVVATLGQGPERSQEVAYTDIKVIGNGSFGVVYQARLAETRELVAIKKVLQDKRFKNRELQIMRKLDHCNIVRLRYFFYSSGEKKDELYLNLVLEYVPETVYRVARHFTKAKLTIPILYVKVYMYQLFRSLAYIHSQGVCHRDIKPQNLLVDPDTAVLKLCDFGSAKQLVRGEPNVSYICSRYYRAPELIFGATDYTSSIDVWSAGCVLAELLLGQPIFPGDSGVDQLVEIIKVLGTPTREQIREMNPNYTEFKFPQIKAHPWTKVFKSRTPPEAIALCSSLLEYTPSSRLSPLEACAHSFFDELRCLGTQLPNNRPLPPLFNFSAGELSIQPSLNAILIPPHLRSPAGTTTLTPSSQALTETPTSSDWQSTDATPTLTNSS
Procedure, shortened: as §1

[10] = biological target: AKT3 (Homo sapiens, UniProt Q9Y243)
AKT3, sequence (Q9Y243 whole entry): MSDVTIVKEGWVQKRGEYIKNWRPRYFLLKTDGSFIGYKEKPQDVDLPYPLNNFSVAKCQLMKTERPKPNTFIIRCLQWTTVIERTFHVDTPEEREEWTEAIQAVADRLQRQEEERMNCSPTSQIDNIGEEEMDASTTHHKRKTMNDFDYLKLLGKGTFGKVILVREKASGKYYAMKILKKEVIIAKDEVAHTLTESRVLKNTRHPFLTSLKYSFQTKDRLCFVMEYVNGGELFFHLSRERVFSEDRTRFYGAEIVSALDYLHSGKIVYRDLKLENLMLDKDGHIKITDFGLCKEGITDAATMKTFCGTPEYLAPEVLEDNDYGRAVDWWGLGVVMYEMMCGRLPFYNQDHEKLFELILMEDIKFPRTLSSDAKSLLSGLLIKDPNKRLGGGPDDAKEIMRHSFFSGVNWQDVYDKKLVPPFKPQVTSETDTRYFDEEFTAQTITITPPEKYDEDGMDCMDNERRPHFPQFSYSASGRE
Procedure, shortened: as §1

[11] = biological target: CHEK2 (Homo sapiens, UniProt O96017)
CHEK2, sequence (O96017 whole entry): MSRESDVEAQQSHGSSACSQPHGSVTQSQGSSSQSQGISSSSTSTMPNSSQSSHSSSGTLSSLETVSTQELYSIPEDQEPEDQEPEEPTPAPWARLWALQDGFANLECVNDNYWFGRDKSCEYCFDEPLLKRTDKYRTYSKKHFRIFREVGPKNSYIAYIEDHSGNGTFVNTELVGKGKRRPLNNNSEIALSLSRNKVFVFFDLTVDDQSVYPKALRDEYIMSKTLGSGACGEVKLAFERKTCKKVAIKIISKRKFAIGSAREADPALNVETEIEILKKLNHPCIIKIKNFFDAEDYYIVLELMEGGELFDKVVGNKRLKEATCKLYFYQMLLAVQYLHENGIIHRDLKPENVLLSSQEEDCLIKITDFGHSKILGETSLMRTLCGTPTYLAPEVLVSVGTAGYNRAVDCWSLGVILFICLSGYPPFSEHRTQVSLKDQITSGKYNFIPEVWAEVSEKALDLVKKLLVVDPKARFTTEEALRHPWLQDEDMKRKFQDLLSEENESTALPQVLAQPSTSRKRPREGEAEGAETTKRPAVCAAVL
Procedure, shortened: as §1

Row | Structure (SMILES) | Activity [2] | Activity [4] | Activity [8] | also measured
1 | CN1CCN(c2ccc(N(C)c3ccnc4ccc(-c5ccccc5)cc34)cc2)CC1 [N-methyl-N-(4-(4-methylpiperazin-1-yl)phenyl)-6-phenylquinolin-4-amine] | BMX | MAPKAPK2 | – | Activity [1]: KIT; Activity [3]: FLT-3
2 | CN1CCN(c2ccc(Nc3ccnc4ccc(-c5ccc(C(C)(C)C)cc5)cc34)cc2)CC1 [6-(4-tert-butylphenyl)-N-(4-(4-methylpiperazin-1-yl)phenyl)quinolin-4-amine] | – | MAPKAPK2 | PRAK | Activity [5]: CHEK1; Activity [6]: NEK2; Activity [7]: C-TAK1
3 | CC(=O)Nc1cccc(-c2ccc3nccc(Nc4ccc(N5CCN(C)CC5)cc4)c3c2)c1 [N-(3-(4-(4-(4-methylpiperazin-1-yl)phenylamino)quinolin-6-yl)phenyl)acetamide] | – | MAPKAPK2 | PRAK | Activity [9]: GSK3-α
4 | CN1CCN(c2ccc(Nc3ccnc4ccc(-c5cccc6cccnc56)cc34)cc2)CC1 [N-(4-(4-methylpiperazin-1-yl)phenyl)-6,8′-biquinolin-4-amine] | BMX | MAPKAPK2 | PRAK | Activity [1]: KIT
5 | CN1CCN(c2ccc(N(C)c3ccnc4ccc(-c5ccc(C#N)cc5)cc34)cc2)CC1 [4-(4-(methyl(4-(4-methylpiperazin-1-yl)phenyl)amino)quinolin-6-yl)benzonitrile] | BMX | MAPKAPK2 | – | Activity [1]: KIT; Activity [3]: FLT-3
6 | CN1CCN(c2ccc(Nc3ccnc4ccc(-c5cccc([N+](=O)[O-])c5)cc34)cc2)CC1 [N-(4-(4-methylpiperazin-1-yl)phenyl)-6-(3-nitrophenyl)quinolin-4-amine] | – | – | PRAK | Activity [10]: AKT3
7 | Cc1ccc(C)c(-c2ccc3nccc(Nc4ccc(N5CCN(C)CC5)cc4)c3c2)c1 [6-(2,5-dimethylphenyl)-N-(4-(4-methylpiperazin-1-yl)phenyl)quinolin-4-amine] | – | MAPKAPK2 | PRAK | Activity [10]: AKT3; Activity [6]: NEK2
8 | CN1CCN(c2ccc(Nc3ccnc4ccc(-c5ccc(C(F)(F)F)cc5)cc34)cc2)CC1 [N-(4-(4-methylpiperazin-1-yl)phenyl)-6-(4-(trifluoromethyl)phenyl)quinolin-4-amine] | – | – | PRAK | Activity [5]: CHEK1; Activity [6]: NEK2; Activity [7]: C-TAK1
9 | CN(C)CCN1CCN(c2ccc(Nc3ccnc4ccc(-c5ccc(C#N)cc5)cc34)cc2)CC1 [4-(4-(4-(4-(2-(dimethylamino)ethyl)piperazin-1-yl)phenylamino)quinolin-6-yl)benzonitrile] | – | MAPKAPK2 | – | Activity [5]: CHEK1; Activity [7]: C-TAK1
10 | CCC(C)N1CCN(c2ccc(Nc3ccnc4ccc(-c5ccc(C#N)cc5)cc34)cc2)CC1 (stereo not drawn) [4-(4-(4-(4-sec-butylpiperazin-1-yl)phenylamino)quinolin-6-yl)benzonitrile] | BMX | MAPKAPK2 | – | –
11 | CN1CCN(c2ccc(Nc3ccnc4ccc(-c5cccc(CO)c5)cc34)cc2)CC1 [(3-(4-(4-(4-methylpiperazin-1-yl)phenylamino)quinolin-6-yl)phenyl)methanol] | – | MAPKAPK2 | PRAK | Activity [11]: CHEK2; Activity [3]: FLT3
12 | CN1CCN(c2ccc(Nc3ccnc4ccc(-c5cc(F)c(F)c(F)c5)cc34)cc2)CC1 [N-(4-(4-methylpiperazin-1-yl)phenyl)-6-(3,4,5-trifluorophenyl)quinolin-4-amine] | – | MAPKAPK2 | PRAK | Activity [5]: CHEK1; Activity [6]: NEK2
13 | COc1ccc(-c2ccc3nccc(Nc4ccc(N5CCN(C(C)C)CC5)cc4)c3c2)cc1 [N-(4-(4-isopropylpiperazin-1-yl)phenyl)-6-(4-methoxyphenyl)quinolin-4-amine] | BMX | MAPKAPK2 | – | –
14 | CN1CCN(c2ccc(Nc3ccnc4ccc(-c5cccnc5)cc34)cc2)CC1 [N-(4-(4-methylpiperazin-1-yl)phenyl)-6-(pyridin-3-yl)quinolin-4-amine] | – | MAPKAPK2 | PRAK | Activity [10]: AKT3
